Test [1] addresses T1, Serine/threonine-protein kinase ULK1 (Homo sapiens, UniProt O75385).
T1 sequence (O75385 whole entry): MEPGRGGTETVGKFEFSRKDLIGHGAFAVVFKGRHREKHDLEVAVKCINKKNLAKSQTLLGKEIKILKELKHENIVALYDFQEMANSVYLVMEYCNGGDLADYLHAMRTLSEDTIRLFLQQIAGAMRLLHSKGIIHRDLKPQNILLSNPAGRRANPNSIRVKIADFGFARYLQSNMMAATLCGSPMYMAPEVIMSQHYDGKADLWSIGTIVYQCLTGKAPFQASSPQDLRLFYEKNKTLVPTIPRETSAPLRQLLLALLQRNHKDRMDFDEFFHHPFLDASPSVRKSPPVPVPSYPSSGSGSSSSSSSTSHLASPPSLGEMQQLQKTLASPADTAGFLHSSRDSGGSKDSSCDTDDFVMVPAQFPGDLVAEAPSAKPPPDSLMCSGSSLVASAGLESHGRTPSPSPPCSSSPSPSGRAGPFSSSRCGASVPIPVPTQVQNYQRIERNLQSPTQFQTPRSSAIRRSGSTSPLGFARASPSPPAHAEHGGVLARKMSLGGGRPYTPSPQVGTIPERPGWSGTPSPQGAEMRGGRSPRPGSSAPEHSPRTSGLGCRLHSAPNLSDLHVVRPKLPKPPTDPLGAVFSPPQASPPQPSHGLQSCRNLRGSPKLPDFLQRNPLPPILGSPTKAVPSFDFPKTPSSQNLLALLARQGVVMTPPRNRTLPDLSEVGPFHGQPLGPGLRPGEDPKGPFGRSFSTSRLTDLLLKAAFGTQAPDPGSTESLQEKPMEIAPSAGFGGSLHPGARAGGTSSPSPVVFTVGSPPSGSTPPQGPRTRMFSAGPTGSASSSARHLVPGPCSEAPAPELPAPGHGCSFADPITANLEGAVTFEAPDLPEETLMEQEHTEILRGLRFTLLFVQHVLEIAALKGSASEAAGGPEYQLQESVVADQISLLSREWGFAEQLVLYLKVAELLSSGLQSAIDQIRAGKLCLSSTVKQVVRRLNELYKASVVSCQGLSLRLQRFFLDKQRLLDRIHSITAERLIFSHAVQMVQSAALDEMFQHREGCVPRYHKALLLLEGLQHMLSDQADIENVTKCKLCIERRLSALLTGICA

Test [2] addresses MAP kinase-activated protein kinase 2 (Homo sapiens, UniProt P49137).
Test [3] has as its target Cyclin-dependent kinase 12 (Homo sapiens, UniProt Q9NYV4).
Test [4] concerns the target T2, RNA cytidine acetyltransferase (Homo sapiens, UniProt Q9H0A0).
T2 sequence (Q9H0A0 whole entry): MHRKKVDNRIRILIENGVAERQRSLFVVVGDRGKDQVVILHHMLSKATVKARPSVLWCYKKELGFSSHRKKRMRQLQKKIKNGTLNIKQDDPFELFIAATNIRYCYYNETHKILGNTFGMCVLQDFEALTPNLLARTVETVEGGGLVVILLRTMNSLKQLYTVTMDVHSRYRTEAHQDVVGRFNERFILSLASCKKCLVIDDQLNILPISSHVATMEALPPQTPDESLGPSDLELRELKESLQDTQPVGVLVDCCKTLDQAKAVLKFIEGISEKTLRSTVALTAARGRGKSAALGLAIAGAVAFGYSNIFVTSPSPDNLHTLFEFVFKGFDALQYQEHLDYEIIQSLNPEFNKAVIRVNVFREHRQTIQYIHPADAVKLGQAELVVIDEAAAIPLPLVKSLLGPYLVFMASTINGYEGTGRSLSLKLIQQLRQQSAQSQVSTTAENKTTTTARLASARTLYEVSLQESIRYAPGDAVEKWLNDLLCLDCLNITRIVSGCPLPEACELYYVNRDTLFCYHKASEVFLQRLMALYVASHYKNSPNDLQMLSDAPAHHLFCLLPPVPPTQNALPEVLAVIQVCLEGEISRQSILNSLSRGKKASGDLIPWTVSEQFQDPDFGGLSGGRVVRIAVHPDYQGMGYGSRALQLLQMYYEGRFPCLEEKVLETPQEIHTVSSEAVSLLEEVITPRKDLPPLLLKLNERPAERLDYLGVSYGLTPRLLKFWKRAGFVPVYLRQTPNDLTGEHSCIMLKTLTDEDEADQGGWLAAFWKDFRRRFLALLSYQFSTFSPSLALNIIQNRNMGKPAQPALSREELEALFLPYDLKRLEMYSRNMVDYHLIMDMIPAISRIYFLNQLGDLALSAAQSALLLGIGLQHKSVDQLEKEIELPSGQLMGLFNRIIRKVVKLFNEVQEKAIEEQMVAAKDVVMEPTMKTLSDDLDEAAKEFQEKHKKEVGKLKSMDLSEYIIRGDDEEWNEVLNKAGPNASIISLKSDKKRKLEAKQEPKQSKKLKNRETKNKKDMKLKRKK

The target in test [5] is MAP/microtubule affinity-regulating kinase 3 (Homo sapiens, UniProt P27448).
Chain of MAP/microtubule affinity-regulating kinase 3 (P27448 whole entry): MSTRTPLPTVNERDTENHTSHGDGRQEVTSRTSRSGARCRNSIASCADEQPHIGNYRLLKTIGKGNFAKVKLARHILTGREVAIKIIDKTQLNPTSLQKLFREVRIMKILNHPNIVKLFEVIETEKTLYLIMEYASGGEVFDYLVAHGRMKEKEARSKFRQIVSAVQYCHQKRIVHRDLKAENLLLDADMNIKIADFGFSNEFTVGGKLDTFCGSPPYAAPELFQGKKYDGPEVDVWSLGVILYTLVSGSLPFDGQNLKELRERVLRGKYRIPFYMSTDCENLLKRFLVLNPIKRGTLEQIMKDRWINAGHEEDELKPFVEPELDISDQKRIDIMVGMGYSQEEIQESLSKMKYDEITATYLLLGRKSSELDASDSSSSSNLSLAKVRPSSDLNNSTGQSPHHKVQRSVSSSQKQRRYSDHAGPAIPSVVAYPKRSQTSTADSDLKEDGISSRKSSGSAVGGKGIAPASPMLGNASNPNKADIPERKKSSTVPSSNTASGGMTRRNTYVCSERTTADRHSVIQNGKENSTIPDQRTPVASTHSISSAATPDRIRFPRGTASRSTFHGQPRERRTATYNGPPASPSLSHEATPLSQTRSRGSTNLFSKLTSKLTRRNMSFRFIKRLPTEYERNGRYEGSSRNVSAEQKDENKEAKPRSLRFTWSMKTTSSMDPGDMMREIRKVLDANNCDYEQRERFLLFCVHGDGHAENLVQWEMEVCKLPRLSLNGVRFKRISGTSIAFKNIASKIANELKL
For test [6], the target named is Receptor-interacting serine/threonine-protein kinase 2 (Homo sapiens, UniProt O43353).
Chain of Receptor-interacting serine/threonine-protein kinase 2 (O43353 whole entry): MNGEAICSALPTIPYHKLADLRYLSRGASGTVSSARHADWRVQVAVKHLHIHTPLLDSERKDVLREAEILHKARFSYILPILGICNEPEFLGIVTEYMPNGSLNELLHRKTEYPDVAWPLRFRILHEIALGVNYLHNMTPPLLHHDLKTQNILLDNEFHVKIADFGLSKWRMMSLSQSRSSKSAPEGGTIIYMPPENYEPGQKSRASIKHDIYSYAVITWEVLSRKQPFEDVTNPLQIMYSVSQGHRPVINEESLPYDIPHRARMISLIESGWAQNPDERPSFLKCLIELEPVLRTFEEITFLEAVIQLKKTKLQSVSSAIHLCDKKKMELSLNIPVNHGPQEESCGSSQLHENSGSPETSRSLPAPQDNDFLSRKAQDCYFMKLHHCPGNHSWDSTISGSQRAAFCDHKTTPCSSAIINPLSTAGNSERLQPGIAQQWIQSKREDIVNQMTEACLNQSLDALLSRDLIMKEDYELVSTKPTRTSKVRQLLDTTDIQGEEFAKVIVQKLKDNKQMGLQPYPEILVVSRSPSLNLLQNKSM

Experimental findings from ChEMBL document CHEMBL3991601, “The target landscape of clinical kinase drugs” (Science, 2017) are described below.

Calls of active or inactive are those of the source. Rule as the data show it, for most assays here: actives have a measured Kd and inactives only a lower limit.
Also: in the data inactive means no Kd found up to 30 µM.

Chain of MAP kinase-activated protein kinase 2 (P49137 whole entry): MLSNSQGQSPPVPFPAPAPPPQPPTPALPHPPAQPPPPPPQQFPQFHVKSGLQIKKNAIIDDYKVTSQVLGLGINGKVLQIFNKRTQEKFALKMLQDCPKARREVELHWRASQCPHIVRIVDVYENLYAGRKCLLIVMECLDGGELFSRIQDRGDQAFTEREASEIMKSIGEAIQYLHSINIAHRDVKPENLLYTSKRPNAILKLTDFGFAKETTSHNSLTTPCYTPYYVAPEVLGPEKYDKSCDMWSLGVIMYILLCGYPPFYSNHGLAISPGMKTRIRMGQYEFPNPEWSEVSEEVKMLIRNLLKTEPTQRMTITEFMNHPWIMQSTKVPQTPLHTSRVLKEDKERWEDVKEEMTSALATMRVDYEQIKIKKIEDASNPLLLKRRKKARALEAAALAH
Chain of Cyclin-dependent kinase 12 (Q9NYV4 whole entry): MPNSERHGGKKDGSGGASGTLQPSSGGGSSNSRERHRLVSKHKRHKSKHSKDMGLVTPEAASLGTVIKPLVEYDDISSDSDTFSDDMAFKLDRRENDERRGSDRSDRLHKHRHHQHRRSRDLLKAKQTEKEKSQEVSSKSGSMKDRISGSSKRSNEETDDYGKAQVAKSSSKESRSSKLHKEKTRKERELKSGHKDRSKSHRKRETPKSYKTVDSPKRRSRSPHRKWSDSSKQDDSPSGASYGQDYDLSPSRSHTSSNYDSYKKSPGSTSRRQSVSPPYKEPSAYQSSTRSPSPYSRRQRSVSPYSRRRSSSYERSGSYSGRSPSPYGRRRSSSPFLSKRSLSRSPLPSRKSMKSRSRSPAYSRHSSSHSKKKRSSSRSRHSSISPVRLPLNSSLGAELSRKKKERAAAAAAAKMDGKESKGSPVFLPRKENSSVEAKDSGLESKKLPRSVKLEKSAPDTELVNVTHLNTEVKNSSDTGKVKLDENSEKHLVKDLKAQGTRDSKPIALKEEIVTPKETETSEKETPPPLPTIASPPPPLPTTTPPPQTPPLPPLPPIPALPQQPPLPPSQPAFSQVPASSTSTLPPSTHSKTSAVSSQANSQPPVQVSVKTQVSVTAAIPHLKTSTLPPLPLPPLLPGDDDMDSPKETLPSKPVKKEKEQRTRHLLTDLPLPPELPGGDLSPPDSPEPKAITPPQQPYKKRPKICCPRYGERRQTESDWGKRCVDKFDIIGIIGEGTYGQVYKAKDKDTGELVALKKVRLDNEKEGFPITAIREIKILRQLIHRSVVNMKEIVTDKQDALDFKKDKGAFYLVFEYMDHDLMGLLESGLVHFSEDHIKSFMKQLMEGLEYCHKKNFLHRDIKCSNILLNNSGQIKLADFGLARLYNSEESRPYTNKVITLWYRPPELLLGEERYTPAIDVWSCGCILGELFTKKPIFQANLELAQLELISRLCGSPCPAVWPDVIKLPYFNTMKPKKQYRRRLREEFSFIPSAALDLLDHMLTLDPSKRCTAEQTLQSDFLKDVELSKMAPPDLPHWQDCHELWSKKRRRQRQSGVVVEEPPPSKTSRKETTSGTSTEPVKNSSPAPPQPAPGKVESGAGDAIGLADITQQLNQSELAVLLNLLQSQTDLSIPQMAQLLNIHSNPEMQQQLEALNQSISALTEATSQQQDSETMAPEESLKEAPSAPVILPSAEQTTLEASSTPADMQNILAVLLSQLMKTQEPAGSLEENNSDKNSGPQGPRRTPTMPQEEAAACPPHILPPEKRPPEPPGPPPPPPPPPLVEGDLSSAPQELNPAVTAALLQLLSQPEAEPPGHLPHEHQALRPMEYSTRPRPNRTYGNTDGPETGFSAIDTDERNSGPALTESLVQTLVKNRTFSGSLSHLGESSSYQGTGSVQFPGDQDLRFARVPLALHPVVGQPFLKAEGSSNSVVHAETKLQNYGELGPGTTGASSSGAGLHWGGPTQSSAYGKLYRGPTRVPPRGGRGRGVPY

As usually defined, the Kd is the concentration at which binding is half-saturated. As for `C=CCN(/C=C1/C(=O)O[C@H](COC)[C@@]2(C)C1=C(O)C(=O)C1=C2[C@H](OC(C)=O)C[C@]2(C)C(=O)CC[C@@H]12)CC=C` [SONOLISIB], the Kd in test [1], in test [2], in test [3], in test [4], in test [5] and in test [6] was > 30 µM (inactive) throughout.
With `COc1cccc2cc(-c3nc([C@H]4CC[C@H](C(=O)O)CC4)n4ncnc(N)c34)[nH]c12` [OSI-027], the Kd in test [1] is > 30 µM (inactive); in test [2] it was > 30 µM (inactive); in test [3], > 30 µM (inactive); in test [4] it was > 30 µM (inactive); in test [5], > 30 µM (inactive); in test [6], 1.16 µM (active).
`O=c1[nH]c([C@@H]2CCCN2)nc2c1oc1ccc(Cl)cc12`: the Kd in test [1], in test [2], in test [3], in test [4], in test [5] and in test [6] was > 30 µM (inactive) each time.
Take `CN1CCN(c2nc(C3=C(c4c[nH]c5ccccc45)C(=O)NC3=O)c3ccccc3n2)CC1` [SOTRASTAURIN]: the Kd in test [1], in test [2], in test [3], in test [4], in test [5] and in test [6] was > 30 µM (inactive) throughout.
Regarding `CCN1CCN(Cc2ccc(Nc3ncc(F)c(-c4cc(F)c5nc(C)n(C(C)C)c5c4)n3)nc2)CC1` [ABEMACICLIB], the Kd in test [1], in test [2], in test [3], in test [4], in test [5] and in test [6] was > 30 µM (inactive) in each case.
For the molecule `COc1ccc(-c2ccc3ncc4c(c3c2)n(-c2ccc(N3CCNCC3)c(C(F)(F)F)c2)c(=O)n4C)cn1` [BGT-226 FREE BASE], the Kd in test [1], in test [2], in test [3], in test [4], in test [5] and in test [6] was > 30 µM (inactive) throughout.
For the molecule `CNC(=O)c1ccc(Nc2ncc(C(F)(F)F)c(NCc3nccnc3N(C)S(C)(=O)=O)n2)cc1` [DEFACTINIB], the Kd in test [1] is > 30 µM (inactive); in test [2] it was > 30 µM (inactive); in test [3], 0.73 µM (active); in test [4], > 30 µM (inactive); in test [5] it was 4.49 µM (active); in test [6], > 30 µM (inactive).
Regarding `Cc1c(Cn2c(C)nc3c(C(=O)O)cc(N4CCOCC4)cc32)cccc1C(F)(F)F` [GSK-2636771], the Kd in test [1], in test [2], in test [3], in test [4], in test [5] and in test [6] was > 30 µM (inactive) in each case.
`Cc1cc(C(=O)Nc2cc(Oc3ccc4nc(NC(=O)C5CC5)cn4n3)ccc2C)n(C)n1` [TAK-593]: the Kd in test [1], in test [2], in test [3], in test [4], in test [5] and in test [6] was > 30 µM (inactive) throughout.
As to `Cn1cc(-c2[nH]c3cc(NC(=O)[C@H](N)C4CCCCC4)cc4c3c2C=NNC4=O)cn1`, the Kd in test [1] was > 30 µM (inactive); in test [2], > 30 µM (inactive); in test [3], > 30 µM (inactive); in test [4], > 30 µM (inactive); in test [5], 0.387 µM (active); in test [6], > 30 µM (inactive).
`C[C@@H]1COC(Nc2ccc3ncnc(Nc4ccc(OCc5nccs5)c(Cl)c4)c3c2)=N1` [VARLITINIB]: the Kd was > 30 µM (inactive) in test [1]; > 30 µM (inactive) in test [2]; > 30 µM (inactive) in test [3]; > 30 µM (inactive) in test [4]; > 30 µM (inactive) in test [5]; 0.81 µM (active) in test [6].
Turning to `CCc1cc2c(cc1N1CCC(N3CCOCC3)CC1)C(C)(C)c1[nH]c3cc(C#N)ccc3c1C2=O` [ALECTINIB], the Kd in test [1], in test [2], in test [3], in test [4], in test [5] and in test [6] was > 30 µM (inactive) throughout.
Regarding `C#Cc1cccc(Nc2ncnc3cc4c(cc23)OCCOCCOCCO4)c1` [ICOTINIB], the Kd in test [1] is > 30 µM (inactive); in test [2] it was > 30 µM (inactive); in test [3], > 30 µM (inactive); in test [4] it was > 30 µM (inactive); in test [5], > 30 µM (inactive); in test [6] it was 2.63 µM (active).
In the case of `CC1(COc2ccc3c(c2)ncn3-c2ccc3cccc(N4CCC(N)CC4)c3n2)COC1` [CRENOLANIB], the dissociation constant Kd in test [1] was 0.839 µM (active); in test [2], > 30 µM (inactive); in test [3], > 30 µM (inactive); in test [4] it was > 30 µM (inactive); in test [5] it was 0.22 µM (active); in test [6], 1.31 µM (active).
In the case of `Cn1c(=O)c(F)c(Nc2ccc(I)cc2F)c2c(=O)n(C[C@@H](O)CO)cnc21` [TAK-733], the Kd in test [1], in test [2], in test [3], in test [4], in test [5] and in test [6] was > 30 µM (inactive) each time.
In the case of `COc1cc2ncnc3c2cc1OCCCCCN(C)Cc1ccc(Br)cc1N3` [JNJ-26483327], the Kd in test [1] was > 30 µM (inactive); in test [2], > 30 µM (inactive); in test [3], > 30 µM (inactive); in test [4], > 30 µM (inactive); in test [5] it was > 30 µM (inactive); in test [6], 0.39 µM (active).
Turning to `CCOc1ccn(-c2ccc(F)cc2)c(=O)c1C(=O)Nc1ccc(Oc2ccnc(N)c2Cl)c(F)c1` [BMS-777607], the Kd in test [1], in test [2], in test [3], in test [4], in test [5] and in test [6] was > 30 µM (inactive) in each case.
With `FC(F)(F)c1ccc(CNc2ccc(Cc3c[nH]c4ncc(Cl)cc34)cn2)cn1` [PEXIDARTINIB], the Kd in test [1], in test [2], in test [3], in test [4], in test [5] and in test [6] was > 30 µM (inactive) each time.
